Assay [1] addresses Sodium-dependent dopamine transporter (Macaca mulatta). Description: Inhibition of [3H]WIN-35428 Binding to the Dopamine Transporter in Rhesus (Macaca mulatta) orCynomolgus Monkey (Macaca fascicularis) Caudate-Putamen.
The nature of assay [2]: Inhibition of [3H]citalopram Binding to the Serotonin Transporter in Rhesus (Macaca mulatta) or Cynomolgus Monkey (Macaca fascicularis) Caudate-Putamen.

The term IC50 denotes the concentration needed to halve the response being measured.

As to `N#CC(c1ccc(Cl)c(Cl)c1)C1CCCC1` (configuration not stated), the IC50 in assay [1] stood at 0.128 µM; in assay [2] it was 10 µM.

With `N#CC(c1ccc(Cl)c(Cl)c1)C1CCCCC1` (configuration not stated), the values for the IC50 in assay [1] and in assay [2] were 0.127 µM and 8 µM, respectively. The molecule `COC(=O)[C@H](c1ccc(Cl)c(Cl)c1)[C@@H]1CCCCO1` (single isomer, unassigned; 5c) displayed a concentration for half-maximal inhibition (IC50) in assay [2] of 7.79 µM. `COC(=O)[C@H](c1ccc2ccccc2c1)[C@@H]1CCCCO1` (single isomer, unassigned): the half-maximal inhibitory concentration (IC50) in assay [1] was determined as 4 µM; in assay [2] it was 10 µM. `COC(=O)C(c1ccccc1)C1CCCCN1` (racemic) [METHYLPHENIDATE]: the concentration for half-maximal inhibition (IC50) in assay [2] is > 100 µM. Same read-out and setting: the same measure for `COC(=O)[C@@H](c1ccc(Cl)c(Cl)c1)[C@H]1CCCCO1` (single isomer, unassigned): 7.8 µM. Turning to `COC(=O)[C@H](c1ccc(Cl)c(Cl)c1)[C@H]1CCCCO1`, the IC50 in assay [2] is > 10 µM. The same measure, in the same setting: for `COC(=O)[C@@H](c1ccc(Cl)c(Cl)c1)[C@@H]1CCCCO1` (stereo in doubt; 4c) the value was 2.18 µM; for `COC(=O)[C@@H](c1ccc(Cl)c(Cl)c1)[C@@H]1CCCCO1` (stereo in doubt; 12), 1.66 µM. Same read-out and setting: the same measure for `COC(=O)C(c1ccc(Cl)c(Cl)c1)C1CCCCC1` (configuration not stated): 12 µM.

In the case of `COC(=O)[C@@H](c1ccccc1)[C@@H]1CCCCO1`, the half-inhibitory concentration (IC50) in assay [1] was 3 µM; in assay [2], > 100 µM. On the same counts, the results for `COC(=O)C(c1ccc(Cl)c(Cl)c1)C1CCCC1` (configuration not stated) are 0.047 µM and 7 µM. For `COC(=O)[C@@H](c1ccc2ccccc2c1)[C@@H]1CCCCO1` the same measures were 0.43 µM and 1 µM. On the same counts, the results for `COC(=O)[C@H](c1ccccc1)[C@@H]1CCCCO1` (single isomer, unassigned) are 13 µM and > 100 µM. Turning to `COC(=O)[C@H](c1ccc(Cl)c(Cl)c1)[C@@H]1CCCCO1` (single isomer, unassigned; 15), the IC50 in assay [2] was > 10 µM.

These data come from ChEMBL document CHEMBL1136769 (J Med Chem, 2003).
